Reference: US12624044B2, “SMARCA degraders and uses thereof” (Kymera Therapeutics, Inc., priority 2019, dated 2026)

Biological target: SMARCA2 (Homo sapiens, UniProt P51531)
Assay: MSD SMARCA2 degradation in NCI-H1299 cell line (24 h)
Format: cell-based
Design: HC: NCI-H1299 cells treated with DMSO; host or cells: NCI-H1299
Conditions: NCI-H1299 cells, read-out: SMARCA2 MSD H1299 degradation 24 h: External Abs-DC50
Procedure: Example 32. MSD SMARCA2 Degradation in […] Cell Line
Cell Culture: Cells were cultured in exponential growth phase.
Compound Preparation and Treatment: NCI-H1299 cells were seeded into the 96-well plate at 4.0*10^4 cells per 100 ul per well. Incubate the plate in the incubator overnight. The next day, compounds were diluted to designed stock concentration by TECAN, then perform a 3 fold, 9-point dilution via transferring 15 uL compound into 30 μL DMSO using Apricot. 200 nL diluted compound from compound source plate were transferred into the 96-intermediate plate as designated by using Echo550, followed with 100 ul culture medium to make the 2× compound solution. Cell plate were changed with 80 ul of fresh culture medium and 80 ul of 2× compound solution was added into the well to achieve the final designed concentration. Cell plate was then shaken at 720 rpm for 5 min and incubated for 24 hours in the incubator.
Sample Preparation: Media was aspirated from the cultures and the plate was washed with PBS twice. 60 ul of pre-chilled PIPA lysis buffer (Boston BioProducts BP-115D) with protease inhibitor were directly added into the well to lyze the cells for 20 minutes at 4° C. Cell lysates were collected.
MSD Procedure: The MSD plate was coated with 40 ul cell lysate and incubated at 4° C. overnight. The next day, the MSD coated bare plate was washed 3 times with 150 ul 1×TBST per well, blocked with 150 ul of blocking buffer per well, and shaken for 1 hour at RT, 600 rpm. Blocking buffer was 3% Blocker A in TBST. MSD plate was then washed 3 times with 150 ul 1×TBST per well and Primary Detection antibody (Rabbit anti-SMARCA2/BRM antibody, 100 μg/ml, ab223735) was added to a final [conc.]: 0.3 ug/ml, 25 ul/well and shaken for 1 hour at RT, 600 rpm. Antibody was prepared in Antibody Detection buffer (1% Blocker A in 1×TBST). The MSD plate was then washed 3 times with 150 ul 1×TBST per well. Secondary Detection antibody (SULFO-TAG anti-species antibody) was then added to a final [conc.]: 1 ug/ml, 25 ul/well, and shaken for 1 hour at RT, 600 rpm. Antibodies were prepared in Antibody Detection buffer (1% Blocker A in 1×TBST). MSD plate was washed 3 times with 150 ul 1×TBST per well and 2×MSD reading buffer was added, 150 ul per well, and diluted from 4× with water. MSD instrument was then read.
Data Analysis: The percentage of relative level of SMARCA2 level was calculated following equation below.
LC: A2780, SMARCA2 negative cells. HC: NCI-H1299 cells treated with DMSO.
The letter codes for the percentage of SMARCA2 degradation after 24 hours (Dmax %) include: A (>90% degradation), B (>70-90 degradation), C (50-70 degradation), and D (<50% degradation).

Sequence of SMARCA2 (P51531 whole entry): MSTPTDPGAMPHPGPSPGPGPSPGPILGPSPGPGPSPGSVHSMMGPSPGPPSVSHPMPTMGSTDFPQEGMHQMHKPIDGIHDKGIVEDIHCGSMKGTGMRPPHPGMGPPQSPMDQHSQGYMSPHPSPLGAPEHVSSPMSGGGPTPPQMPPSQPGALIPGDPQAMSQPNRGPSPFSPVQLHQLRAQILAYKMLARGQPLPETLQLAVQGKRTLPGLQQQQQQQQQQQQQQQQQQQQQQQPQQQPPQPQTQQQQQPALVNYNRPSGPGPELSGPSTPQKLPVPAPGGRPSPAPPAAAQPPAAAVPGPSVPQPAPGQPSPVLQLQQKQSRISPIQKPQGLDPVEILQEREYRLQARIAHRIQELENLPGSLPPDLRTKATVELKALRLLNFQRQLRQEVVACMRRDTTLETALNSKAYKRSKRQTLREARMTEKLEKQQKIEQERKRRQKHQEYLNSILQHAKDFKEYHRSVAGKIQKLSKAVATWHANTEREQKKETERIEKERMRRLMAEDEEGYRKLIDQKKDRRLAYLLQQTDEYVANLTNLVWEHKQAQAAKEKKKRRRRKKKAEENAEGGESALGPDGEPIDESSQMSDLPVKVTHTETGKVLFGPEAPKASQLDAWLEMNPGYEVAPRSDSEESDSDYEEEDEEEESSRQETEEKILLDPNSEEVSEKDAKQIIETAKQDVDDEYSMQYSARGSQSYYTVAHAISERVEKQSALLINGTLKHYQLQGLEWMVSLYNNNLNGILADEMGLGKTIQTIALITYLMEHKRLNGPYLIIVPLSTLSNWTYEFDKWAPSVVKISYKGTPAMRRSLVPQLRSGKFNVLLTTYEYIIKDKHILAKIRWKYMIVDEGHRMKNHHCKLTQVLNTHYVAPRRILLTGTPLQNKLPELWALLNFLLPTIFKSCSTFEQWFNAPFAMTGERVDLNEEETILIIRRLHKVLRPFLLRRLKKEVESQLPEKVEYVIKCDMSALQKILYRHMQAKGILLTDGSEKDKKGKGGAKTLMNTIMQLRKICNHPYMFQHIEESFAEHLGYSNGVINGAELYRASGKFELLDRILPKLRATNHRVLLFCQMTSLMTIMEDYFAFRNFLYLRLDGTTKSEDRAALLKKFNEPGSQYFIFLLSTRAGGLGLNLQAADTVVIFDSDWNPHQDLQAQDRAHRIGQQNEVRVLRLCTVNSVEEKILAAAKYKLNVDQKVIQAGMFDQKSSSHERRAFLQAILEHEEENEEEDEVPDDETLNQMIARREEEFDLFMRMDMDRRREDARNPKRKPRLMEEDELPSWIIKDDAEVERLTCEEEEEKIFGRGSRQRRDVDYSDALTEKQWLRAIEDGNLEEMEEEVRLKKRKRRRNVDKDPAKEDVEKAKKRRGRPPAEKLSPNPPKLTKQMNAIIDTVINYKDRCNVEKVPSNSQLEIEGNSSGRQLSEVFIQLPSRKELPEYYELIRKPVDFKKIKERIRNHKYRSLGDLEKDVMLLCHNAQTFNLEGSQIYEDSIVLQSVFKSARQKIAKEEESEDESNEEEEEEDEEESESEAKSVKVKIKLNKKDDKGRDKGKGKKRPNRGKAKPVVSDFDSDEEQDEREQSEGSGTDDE

SMILES	DC50
O=C(CCCCCCCCOc1ccc(N2C[C@H]3C[C@@H]2CN3/C=C/C(=O)c2ccccc2O)nc1)NCCOCCOCCOCCNc1cccc2c1C(=O)N(C1CCC(=O)NC1=O)C2=O (some centres unmarked) [I-1]	> 1000 nM
O=C(CCCCCCCCOc1ccc(N2C[C@H]3C[C@@H]2CN3/C=C/C(=O)c2ccccc2O)nc1)NCCOCCOCCOCCOCCNc1cccc2c1C(=O)N(C1CCC(=O)NC1=O)C2=O (some centres unmarked) [I-2]	> 1000 nM
O=C(CCCCCCCCOc1ccc(N2C[C@H]3C[C@@H]2CN3/C=C/C(=O)c2ccccc2O)nc1)NCCOCCOCCOCCOCCOCCNc1cccc2c1C(=O)N(C1CCC(=O)NC1=O)C2=O (some centres unmarked) [I-3]	> 1000 nM
Cn1c(=O)n(C2CCC(=O)NC2=O)c2ccc(CCCOCCOCCOCCNC(=O)CCCCCCCCOc3ccc(N4C[C@H]5C[C@@H]4CN5/C=C/C(=O)c4ccccc4O)nc3)cc21 (some centres unmarked) [I-4]	> 1000 nM
Cn1c(=O)n(C2CCC(=O)NC2=O)c2ccc(CCCOCCOCCOCCOCCNC(=O)CCCCCCCCOc3ccc(N4C[C@H]5C[C@@H]4CN5/C=C/C(=O)c4ccccc4O)nc3)cc21 (some centres unmarked) [I-5]	> 1000 nM
Cn1c(=O)n(C2CCC(=O)NC2=O)c2ccc(CCCOCCOCCOCCOCCOCCNC(=O)CCCCCCCCOc3ccc(N4C[C@H]5C[C@@H]4CN5/C=C/C(=O)c4ccccc4O)nc3)cc21 (some centres unmarked) [I-6]	> 1000 nM
O=C(CCCCCCCCOc1ccc(N2C[C@H]3C[C@@H]2CN3/C=C/C(=O)c2ccccc2O)nc1)NCCOCCOCCNc1cccc2c1C(=O)N(C1CCC(=O)NC1=O)C2=O (some centres unmarked) [I-7]	> 1000 nM
Cn1c(=O)n(C2CCC(=O)NC2=O)c2ccc(CCCOCCOCCNC(=O)CCCCCCCCOc3ccc(N4C[C@H]5C[C@@H]4CN5/C=C/C(=O)c4ccccc4O)nc3)cc21 (some centres unmarked) [I-8]	> 1000 nM
CC(c1ccc(C(=O)NCCOCCOCCOCCNc2cccc3c2C(=O)N(C2CCC(=O)NC2=O)C3=O)cc1)n1cc(-c2cc(-c3ccccc3O)nnc2N)cn1 (centres unmarked) [I-9]	> 1000 nM
CC(c1ccc(C(=O)NCCOCCOCCOCCOCCNc2cccc3c2C(=O)N(C2CCC(=O)NC2=O)C3=O)cc1)n1cc(-c2cc(-c3ccccc3O)nnc2N)cn1 (centres unmarked) [I-10]	> 1000 nM
CC(c1ccc(C(=O)NCCOCCOCCOCCOCCOCCNc2cccc3c2C(=O)N(C2CCC(=O)NC2=O)C3=O)cc1)n1cc(-c2cc(-c3ccccc3O)nnc2N)cn1 (centres unmarked) [I-11]	> 1000 nM
CC(c1ccc(C(=O)NCCOCCOCCOCCCc2ccc3c(c2)n(C)c(=O)n3C2CCC(=O)NC2=O)cc1)n1cc(-c2cc(-c3ccccc3O)nnc2N)cn1 (centres unmarked) [I-12]	> 1000 nM
CC(c1ccc(C(=O)NCCOCCOCCOCCOCCCc2ccc3c(c2)n(C)c(=O)n3C2CCC(=O)NC2=O)cc1)n1cc(-c2cc(-c3ccccc3O)nnc2N)cn1 (centres unmarked) [I-13]	> 1000 nM
CC(c1ccc(C(=O)NCCOCCOCCOCCOCCOCCCc2ccc3c(c2)n(C)c(=O)n3C2CCC(=O)NC2=O)cc1)n1cc(-c2cc(-c3ccccc3O)nnc2N)cn1 (centres unmarked) [I-14]	> 1000 nM

Now from value to compound:

DC50	SMILES
> 1000 nM	CC(c1ccc(C(=O)NCCOCCOCCNc2cccc3c2C(=O)N(C2CCC(=O)NC2=O)C3=O)cc1)n1cc(-c2cc(-c3ccccc3O)nnc2N)cn1 (centres unmarked) [I-15]
> 1000 nM	CC(c1ccc(C(=O)NCCOCCOCCCc2ccc3c(c2)n(C)c(=O)n3C2CCC(=O)NC2=O)cc1)n1cc(-c2cc(-c3ccccc3O)nnc2N)cn1 (centres unmarked) [I-16]
> 1000 nM	O=C(CCCCCCCCOc1ccnc(N2C[C@H]3C[C@@H]2CN3/C=C/C(=O)c2ccccc2O)c1)NCCOCCOCCOCCNc1cccc2c1C(=O)N(C1CCC(=O)NC1=O)C2=O (some centres unmarked) [I-17]
> 1000 nM	O=C(CCCCCCCCOc1ccnc(N2C[C@H]3C[C@@H]2CN3/C=C/C(=O)c2ccccc2O)c1)NCCOCCOCCOCCOCCNc1cccc2c1C(=O)N(C1CCC(=O)NC1=O)C2=O (some centres unmarked) [I-18]
> 1000 nM	O=C(CCCCCCCCOc1ccnc(N2C[C@H]3C[C@@H]2CN3/C=C/C(=O)c2ccccc2O)c1)NCCOCCOCCOCCOCCOCCNc1cccc2c1C(=O)N(C1CCC(=O)NC1=O)C2=O (some centres unmarked) [I-19]
> 1000 nM	Cn1c(=O)n(C2CCC(=O)NC2=O)c2ccc(CCCOCCOCCOCCNC(=O)CCCCCCCCOc3ccnc(N4C[C@H]5C[C@@H]4CN5/C=C/C(=O)c4ccccc4O)c3)cc21 (some centres unmarked) [I-20]
